Source: US9962369B2, “Methods and compositions for transdermal delivery” (SPRAYABLE HOLDINGS, INC., priority 2014, dated 2018)

Assay: Solubility of AI compound in AI-helper composition (AI compound added until saturated)
Type: physicochemical
Conditions: water
Protocol: Solubility was tested by adding small amounts of AI compound to a set volume of an AI-helper composition at a certain temperature until the AI-helper composition was saturated with the AI compound, and measuring the amount of the AI compound added to calculate the solubility of the AI compound in the AI-helper composition at the temperature.

Q: Which Solubility of melatonin (tryptophan isopropyl ester•HA 10% w/v, HA = 1/2H2SO4, 20° C.) does the source give for `COc1ccc2[nH]cc(CCNC(C)=O)c2c1` [Melatonin] here?
A: >1.4% (w/v)

Q: And the Solubility of melatonin (tryptophan isopropyl ester•HA 10% w/v, HA = 1/3H3PO4, 20° C.)?
A: >1.2% (w/v)

Q: And the Solubility of melatonin (tryptophan isopropyl ester•HA 10% w/v, HA = 2/3H3PO4, 20° C.)?
A: >1.3% (w/v)

Q: What about the Solubility of melatonin (tryptophan isopropyl ester•HA 10% w/v, HA = Citric acid, 20° C.) of the same compound?
A: >1.2% (w/v)

Q: And the Solubility of melatonin (tryptophan isopropyl ester•HA 10% w/v, HA = H2SO4, 20° C.)?
A: >1.4% (w/v)

Q: What about the Solubility of melatonin (tryptophan isopropyl ester•HA 10% w/v, HA = HBr, 20° C.) of the same compound?
A: >1.4% (w/v)

Q: And the Solubility of melatonin (tryptophan isopropyl ester•HA 10% w/v, HA = HCl, 20° C.)?
A: >1.5% (w/v)

Q: What about the Solubility of melatonin (tryptophan isopropyl ester•HA 10% w/v, HA = HF, 20° C.) of the same compound?
A: >1.5% (w/v)

Q: And the Solubility of melatonin (tryptophan isopropyl ester•HA 10% w/v, HA = HI, 20° C.)?
A: >1.3% (w/v)

Q: And the Solubility of melatonin (tryptophan isopropyl ester•HA 10% w/v, HA = acetic acid, 20° C.)?
A: >1.4% (w/v)

Q: What about the Solubility of melatonin (tryptophan isopropyl ester•HA 10% w/v, HA = benzoic acid, 20° C.) of the same compound?
A: >1.3% (w/v)

Q: What about the Solubility of melatonin (tryptophan isopropyl ester•HA 10% w/v, HA = butyric acid, 20° C.) of the same compound?
A: >1.3% (w/v)

Q: And the Solubility of melatonin (tryptophan isopropyl ester•HA 10% w/v, HA = lactic acid, 20° C.)?
A: >1.4% (w/v)

Q: What about the Solubility of melatonin (tyrosine isopropyl ester•HA 10% w/v, HA = 1/2H2SO4, 20° C.) of the same compound?
A: >1% (w/v)

Q: And the Solubility of melatonin (tyrosine isopropyl ester•HA 10% w/v, HA = 1/3H3PO4, 20° C.)?
A: >1.0% (w/v)

Q: And the Solubility of melatonin (tyrosine isopropyl ester•HA 10% w/v, HA = 2/3H3PO4, 20° C.)?
A: >1.1% (w/v)

Q: And the Solubility of melatonin (tyrosine isopropyl ester•HA 10% w/v, HA = H2SO4, 20° C.)?
A: >1.2% (w/v)

Q: What about the Solubility of melatonin (tyrosine isopropyl ester•HA 10% w/v, HA = HBr, 20° C.) of the same compound?
A: >1.2% (w/v)

Q: What about the Solubility of melatonin (tyrosine isopropyl ester•HA 10% w/v, HA = HCl, 20° C.) of the same compound?
A: >1.3% (w/v)

Q: What about the Solubility of melatonin (tyrosine isopropyl ester•HA 10% w/v, HA = HF, 20° C.) of the same compound?
A: >1.3% (w/v)

Q: What about the Solubility of melatonin (tyrosine isopropyl ester•HA 10% w/v, HA = HI, 20° C.) of the same compound?
A: >1% (w/v)

Q: And the Solubility of melatonin (tyrosine isopropyl ester•HA 10% w/v, HA = acetic acid, 20° C.)?
A: >1.1% (w/v)

Q: What about the Solubility of melatonin (tyrosine isopropyl ester•HA 10% w/v, HA = benzoic acid, 20° C.) of the same compound?
A: >1% (w/v)

Q: What about the Solubility of melatonin (tyrosine isopropyl ester•HA 10% w/v, HA = butyric acid, 20° C.) of the same compound?
A: >1% (w/v)

Q: What about the Solubility of melatonin (tyrosine isopropyl ester•HA 10% w/v, HA = citric acid, 20° C.) of the same compound?
A: >1% (w/v)

Q: And the Solubility of melatonin (tyrosine isopropyl ester•HA 10% w/v, HA = lactic acid, 20° C.)?
A: >1.1% (w/v)
